One experiment deals with plasma. Description: Inhibition of plasma lipid peroxidation (cupric sulfate induced, thiobarbituric acid assay, method of Yagi et al.). It is filed as biochemical. The note with it: 0.1 mL of plasma, cupric sulfate 2 mM, 37°C for 2.5 hours or 18 hours; for IC50: read-out: Plas.Lipid Perox. IC₅₀; for Plas.Lipid Perox. ID₅₀: dose required to inhibit 50% of plasma lipid peroxidation. As to the method:
(§1) Determine the degree of inhibition of LDL and plasma lipid peroxidation by [8]-gingerol and anti-[8]-gingerdiol by the method of Yagi et al. [Vitamins 39, 105 (1968)].
(§2) Incubate a 0.5 mL solution containing 250 micrograms (µg) of LDL or 0.1 mL of plasma with the test compound, in amounts varying from 0 to 250 µg, for 30 minutes at 24°C. To this mixture add 10 µL of a cupric sulfate solution (final concentration 18 µM in LDL assay, 2 mM in plasma assay) and incubate at 37°C for 2.5 hours or 18 hours. Determine the amount of peroxidation of LDL or plasma by the thiobarbituric acid assay. Calculate the dose of test compound required to inhibit 50% of LDL or plasma lipid peroxidation (ID₅₀) and the concentration of test compound required to inhibit 50% of LDL or plasma lipid peroxidation (IC₅₀).

The subject of a further experiment is LDL. Kind of experiment: Inhibition of LDL lipid peroxidation (cupric sulfate induced, thiobarbituric acid assay, method of Yagi et al.). Type of experiment: biochemical. Conditions: 250 µg LDL in 0.5 mL, cupric sulfate 18 µM, 37°C for 2.5 hours or 18 hours; for IC50: read-out: LDL Perox. IC₅₀; for LDL Perox. ID₅₀: dose required to inhibit 50% of LDL peroxidation. As to the method:
as §1, §2

A further experiment has as its system aortas. Description: Antiatherogenic effect in the cholesterol-fed rabbit (Sudan IV stained aortic lesions). Type of experiment: in vivo. Conditions: rabbits fed 1% cholesterol chow with 0.5% (w/w) compound for 56 days, n=5. The text has this: Feed rabbits with 1% cholesterol (w/w) in standard rabbit chow supplemented with (n=5) or without (n=6) 0.5% anti-[8]-gingerdiol (w/w) for 56 days. Each rabbit consumes 120 grams of food per day. Immediately following sacrifice by intravenous injection of sodium pentobarbital, dissect the aortas from the ascending arch to the […] bifurcation.
Remove extraneous adipose tissue, open the aortas longitudinally and rinse several times with saline. Stain the aortas with Sudan IV and photograph using the method described by Mao et al. [J.Med.Chem. 34, 302 (1991)]. Digitize the areas of sudanophilic lesions in the thoracic region of the aorta with a Magiscan image analysis system. Distinguish stained versus unstained areas on the basis of Sudan Red staining. Quantitate the corresponding lesioned and unlesioned areas accordingly.

The nature of experiment [1]: Effect on serum cholesterol in the cholesterol-fed rabbit. It is filed as in vivo. The text has this:
Feed rabbits with 1% cholesterol (w/w) in standard rabbit chow supplemented with (n=5) or without (n=8) 0.5% anti-[8]-gingerdiol (w/w). Each rabbit consumes 120 grams of food per day. Collect blood samples and determine cholesterol in freshly prepared serum using an enzymatic method described by Mao et al., Clin.Chem 29, 1890 (1983).

As for `CCCCCCCC(O)CC(=O)CCc1ccc(O)c(OC)c1` (centres unmarked) [[8]-Gingerol, 1-(4'-Hydroxy-3'-methoxyphenyl)-5-hydroxy-3-dodecanone], in the experiment on plasma, the IC50 stood at 8.3 µM and the “Plas.Lipid Perox. ID₅₀” value was 5 nmol. Further, in the experiment with LDL, the IC50 came out at 109 µM and the “LDL Perox. ID₅₀” value came out at 60 nmol.

As for `CCCCCCCC(O)CC(O)CCc1ccc(O)c(OC)c1` (stereo not drawn) [anti-[8]-Gingerdiol, Anti-1-(4'-hydroxy-3'-methoxyphenyl)-3,5-dodecanediol], the “% Lesions (±SEM) in Abdominal” value in the experiment with aortas (abdominal aorta, control 28 ± 7) turned out to be 24 ± 10%. In addition, the “% Lesions (±SEM) in Arch” value with aortas (aortic arch, control 83 ± 7) came to 73 ± 12%. For the same compound, the “% Lesions (±SEM) in Thoracic” value in the experiment with aortas (thoracic aorta, control 62 ± 8) amounted to 38 ± 16%. Besides, in the experiment with plasma, the IC50 was determined as 16.6 µM and the “Plas.Lipid Perox. ID₅₀” value worked out at 10 nmol. In the experiment with LDL, the IC50 turned out to be 72 µM and the “LDL Perox. ID₅₀” value is 40 nmol. For the same compound, the “Cholesterol (mg/dL±SEM) Day 0” value in experiment [1] (Day 0 (baseline), rabbits fed 1% cholesterol chow with 0.5% (w/w) compound, n=5) came to 82 ± 12 mg/dL. Besides, in experiment [1] (Day 10, rabbits fed 1% cholesterol chow with 0.5% (w/w) compound, n=5, control 790 ± 103), the “Cholesterol (mg/dL±SEM) Day 10” value is recorded as 515 ± 154 mg/dL. Further, in experiment [1] (Day 28, rabbits fed 1% cholesterol chow with 0.5% (w/w) compound, n=5, control 2177 ± 97), the “Cholesterol (mg/dL±SEM) Day 28” value is listed as 1615 ± 216 mg/dL.

(Values after patent EP0516082A2, “Gingerol and gingerdiol derivatives as hypocholesterolemic and antiatherosclerotic agents” (priority 1991, dated 1992).)
